Measurements from the supplement of paper PMC11061612.

Key:
AZD6738 = compound: C[C@@H]1COCCN1C2=NC(=NC(=C2)C3(CC3)[S@](=N)(=O)C)C4=C5C=CNC5=NC=C4 [AZD6738]; conditions: max 10 µM
Procedure, shortened: (§1)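 Plates with 1536 wells received cancer cell lines in 7.5 μl of DMEM/F12 or RPMI containing 10% FBS. After 24 hours at 37°C and 5% CO2, cells were dosed for 72 hours with final DMSO typically 0.2%, and viability was read by CellTiter-Glo 2.0 luminescence scaled between blank-well and DMSO-well means. The single-agent IC50 was taken from a logistic fit of the dose responses made with a non-linear mixed effects model, that logistic curve having two parameters.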

Dasatinib = compound: CC1=C(C(=CC=C1)Cl)NC(=O)C2=CN=C(S2)NC3=CC(=NC(=N3)C)N4CCN(CC4)CCO [Dasatinib]; conditions: max 2 µM
Procedure, shortened: as §1

Olaparib = compound: O=C(c1cc(Cc2n[nH]c(=O)c3ccccc23)ccc1F)N1CCN(C(=O)C2CC2)CC1 [Olaparib]; conditions: max 10 µM
Procedure, shortened: as §1

5-Fluorouracil = compound: O=c1[nH]cc(F)c(=O)[nH]1 [5-Fluorouracil]; conditions: max 20 µM
Procedure, shortened: as §1

AZD2811 = compound: CCN(CCO)CCCOc1ccc2c(Nc3cc(CC(=O)Nc4cccc(F)c4)[nH]n3)ncnc2c1 [AZD2811]; conditions: max 1 µM
Procedure, shortened: as §1

Crizotinib = compound: C[C@@H](Oc1cc(-c2cnn(C3CCNCC3)c2)cnc1N)c1c(Cl)ccc(F)c1Cl [Crizotinib]; conditions: max 10 µM
Procedure, shortened: as §1

Selumetinib = compound: Cn1cnc2c(F)c(Nc3ccc(Br)cc3Cl)c(C(=O)NOCCO)cc21 [Selumetinib]; conditions: max 10 µM
Procedure, shortened: as §1

Trametinib = compound: CC(=O)Nc1cccc(-n2c(=O)n(C3CC3)c(=O)c3c(Nc4ccc(I)cc4F)n(C)c(=O)c(C)c32)c1 [Trametinib]; conditions: max 1 µM
Procedure, shortened: as §1

Etoposide = compound: COc1cc([C@@H]2c3cc4c(cc3[C@@H](O[C@@H]3O[C@@H]5CO[C@@H](C)O[C@H]5[C@H](O)[C@H]3O)[C@H]3COC(=O)[C@H]23)OCO4)cc(OC)c1O [Etoposide]; conditions: max 10 µM
Procedure, shortened: as §1

[1] = compound: O=C(Nc1ccc2[nH]nc(-c3ccncc3)c2c1)[C@@H]1CCN(CC(=O)N2CCN(c3ccc(-c4ncccn4)cc3)CC2)C1; conditions: max 5 µM
Procedure, shortened: as §1

SG3199 = compound: CC1=CN2[C@@H](C1)C=NC3=CC(=C(C=C3C2=O)OC)OCCCCCOC4=C(C=C5C(=C4)N=C[C@@H]6CC(=CN6C5=O)C)OC [SG3199]; conditions: max 0.001 µM
Procedure, shortened: as §1

SRA737 = compound: N#Cc1cnc(Nc2cc(NC[C@H]3CNCCO3)c(C(F)(F)F)cn2)cn1 [SRA737]; conditions: max 10 µM
Procedure, shortened: as §1

Paclitaxel = compound: CC(=O)O[C@H]1C(=O)[C@@]2(C)[C@H]([C@H](OC(=O)c3ccccc3)[C@]3(O)C[C@H](OC(=O)[C@H](O)[C@@H](NC(=O)c4ccccc4)c4ccccc4)C(C)=C1C3(C)C)[C@]1(OC(C)=O)CO[C@@H]1C[C@@H]2O [Paclitaxel]; conditions: max 3 µM
Procedure, shortened: as §1

Lapatinib = compound: CS(=O)(=O)CCNCc1ccc(-c2ccc3ncnc(Nc4ccc(OCc5cccc(F)c5)c(Cl)c4)c3c2)o1 [Lapatinib]; conditions: max 10 µM
Procedure, shortened: as §1

AZD4320 = compound: CN(CC[C@H](CSC1=CC=CC=C1)NC2=C(C=C(C=C2)S(=O)(=O)NC(=O)C3=CC=C(C=C3)N4CCC(CC4)[C@H](C5=CC=CC=C5C6=CC=C(C=C6)Cl)O)S(=O)(=O)C(F)(F)F)CCO [AZD4320]; conditions: max 1 µM
Procedure, shortened: as §1

Gefitinib = compound: COc1cc2ncnc(Nc3ccc(F)c(Cl)c3)c2cc1OCCCN1CCOCC1 [Gefitinib]; conditions: max 10 µM
Procedure, shortened: as §1

AZD1390 = compound: CC(C)n1c(=O)n(C)c2cnc3cc(F)c(-c4ccc(OCCCN5CCCCC5)nc4)cc3c21 [AZD1390]; conditions: max 0.3 µM
Procedure, shortened: as §1

Venetoclax = compound: CC1(C)CCC(CN2CCN(c3ccc(C(=O)NS(=O)(=O)c4ccc(NCC5CCOCC5)c([N+](=O)[O-])c4)c(Oc4cnc5[nH]ccc5c4)c3)CC2)=C(c2ccc(Cl)cc2)C1 [Venetoclax]; conditions: max 1 µM
Procedure, shortened: as §1

MK-2206 = compound: NC1(c2ccc(-c3nc4ccn5c(=O)[nH]nc5c4cc3-c3ccccc3)cc2)CCC1 [MK-2206]; conditions: max 10 µM
Procedure, shortened: as §1

SN-38 = compound: CCc1c2c(nc3ccc(O)cc13)-c1cc3c(c(=O)n1C2)COC(=O)[C@]3(O)CC [SN-38]; conditions: max 0.3 µM
Procedure, shortened: as §1

Carboplatin = compound: C1CC(C1)(C(=O)[O-])C(=O)[O-].N.N.[Pt+2] [Carboplatin]; conditions: max 10 µM
Procedure, shortened: as §1

Alisertib = compound: COc1cc(Nc2ncc3c(n2)-c2ccc(Cl)cc2C(c2c(F)cccc2OC)=NC3)ccc1C(=O)O [Alisertib]; conditions: max 10 µM
Procedure, shortened: as §1

Palbociclib = compound: CC(=O)c1c(C)c2cnc(Nc3ccc(N4CCNCC4)cn3)nc2n(C2CCCC2)c1=O [Palbociclib]; conditions: max 10 µM
Procedure, shortened: as §1

AZD0156 = compound: CN(C)CCCOc1ccc(-c2ccc3ncc4c(c3c2)n(C2CCOCC2)c(=O)n4C)cn1 [AZD0156]; conditions: max 3 µM
Procedure, shortened: as §1

AZD7648 = compound: Cc1cc2ncnn2cc1Nc1ncc2c(n1)n(C1CCOCC1)c(=O)n2C [AZD7648]; conditions: max 10 µM
Procedure, shortened: as §1

AZD5153 = compound: COc1nnc2ccc(N3CCC(c4ccc(OCCN5CCN(C)C(=O)[C@H]5C)cc4)CC3)nn12 [AZD5153]; conditions: max 1 µM
Procedure, shortened: as §1

Gemcitabine = compound: Nc1ccn([C@@H]2O[C@H](CO)[C@@H](O)C2(F)F)c(=O)n1 [Gemcitabine]; conditions: max 0.3 µM
Procedure, shortened: as §1

AZD5363 = compound: C1CN(CCC1(C(=O)N[C@@H](CCO)C2=CC=C(C=C2)Cl)N)C3=NC=NC4=C3C=CN4 [AZD5363]; conditions: max 10 µM
Procedure, shortened: as §1

AZD8186 = compound: C[C@@H](Nc1cc(F)cc(F)c1)c1cc(C(=O)N(C)C)cc2c(=O)cc(N3CCOCC3)oc12 [AZD8186]; conditions: max 10 µM
Procedure, shortened: as §1

Doxorubicin = compound: COc1cccc2c1C(=O)c1c(O)c3c(c(O)c1C2=O)C[C@@](O)(C(=O)CO)C[C@@H]3O[C@H]1C[C@H](N)[C@H](O)[C@H](C)O1 [Doxorubicin]; conditions: max 1 µM
Procedure, shortened: as §1

Prexasertib = compound: COc1cccc(OCCCN)c1-c1cc(Nc2cnc(C#N)cn2)n[nH]1 [Prexasertib]; conditions: max 1 µM
Procedure, shortened: as §1

AZD1775 = compound: C=CCn1c(=O)c2cnc(Nc3ccc(N4CCN(C)CC4)cc3)nc2n1-c1cccc(C(C)(C)O)n1 [AZD1775]; conditions: max 3 µM
Procedure, shortened: as §1

Savolitinib = compound: C[C@@H](c1ccc2nccn2c1)n1nnc2ncc(-c3cnn(C)c3)nc21 [Savolitinib]; conditions: max 1 µM
Procedure, shortened: as §1

AZD5991 = compound: Cc1c2c(nn1C)CSCc1cc(n(C)n1)CSc1cc(c3ccccc3c1)OCCCc1c(C(=O)O)n(C)c3c-2c(Cl)ccc13 [AZD5991]; conditions: max 1 µM
Procedure, shortened: as §1

Taselisib = compound: Cc1nc(-c2cn3c(n2)-c2ccc(-c4cnn(C(C)(C)C(N)=O)c4)cc2OCC3)n(C(C)C)n1 [Taselisib]; conditions: max 10 µM
Procedure, shortened: as §1

Cell Line	IC50, cell viability 72 h (AZD6738)	IC50, cell viability 72 h (Dasatinib)	IC50, cell viability 72 h (Olaparib)	IC50, cell viability 72 h (5-Fluorouracil)	IC50, cell viability 72 h (AZD2811)	IC50, cell viability 72 h (Crizotinib)	IC50, cell viability 72 h (Selumetinib)	IC50, cell viability 72 h (Trametinib)	IC50, cell viability 72 h (Etoposide)	IC50, cell viability 72 h [1]	IC50, cell viability 72 h (SG3199)	IC50, cell viability 72 h (SRA737)	IC50, cell viability 72 h (Paclitaxel)	IC50, cell viability 72 h (Lapatinib)	IC50, cell viability 72 h (AZD4320)	IC50, cell viability 72 h (Gefitinib)	IC50, cell viability 72 h (AZD1390)	IC50, cell viability 72 h (Venetoclax)	IC50, cell viability 72 h (MK-2206)	IC50, cell viability 72 h (SN-38)	IC50, cell viability 72 h (Carboplatin)	IC50, cell viability 72 h (Alisertib)	IC50, cell viability 72 h (Palbociclib)	IC50, cell viability 72 h (AZD0156)	IC50, cell viability 72 h (AZD7648)	IC50, cell viability 72 h (AZD5153)	IC50, cell viability 72 h (Gemcitabine)	IC50, cell viability 72 h (AZD5363)	IC50, cell viability 72 h (AZD8186)	IC50, cell viability 72 h (Doxorubicin)	IC50, cell viability 72 h (Prexasertib)	IC50, cell viability 72 h (AZD1775)	IC50, cell viability 72 h (Savolitinib)	IC50, cell viability 72 h (AZD5991)	IC50, cell viability 72 h (Taselisib)
CaR-1 (Colorectal Carcinoma)	> 10 µM	> 2 µM	> 10 µM	> 20 µM	> 1 µM	> 10 µM	> 10 µM	> 1 µM	> 10 µM	> 5 µM	> 0.001 µM	> 10 µM	0.171 µM	> 10 µM	> 1 µM	> 10 µM	> 0.3 µM	> 1 µM	> 10 µM	0.0282 µM	> 10 µM	> 10 µM	> 10 µM	> 3 µM	> 10 µM	> 1 µM	0.228 µM	> 10 µM	> 10 µM	0.957 µM	0.279 µM	> 3 µM	> 1 µM	> 1 µM	6.55 µM
Calu-3 (Lung Adenocarcinoma)	> 10 µM	> 2 µM	> 10 µM	> 20 µM	> 1 µM	> 10 µM	> 10 µM	> 1 µM	5.55 µM	> 5 µM	> 0.001 µM	> 10 µM	> 3 µM	1.78 µM	> 1 µM	3.73 µM	> 0.3 µM	> 1 µM	> 10 µM	> 0.3 µM	> 10 µM	> 10 µM	> 10 µM	> 3 µM	> 10 µM	0.337 µM	> 0.3 µM	> 10 µM	> 10 µM	> 1 µM	> 1 µM	2.89 µM	> 1 µM	> 1 µM	2.79 µM
LS-180 (Colorectal Carcinoma)	3.42 µM	> 2 µM	> 10 µM	> 20 µM	> 1 µM	> 10 µM	2.68 µM	0.0744 µM	1.92 µM	2.85 µM	> 0.001 µM	> 10 µM	0.0305 µM	> 10 µM	> 1 µM	> 10 µM	> 0.3 µM	> 1 µM	> 10 µM	0.0211 µM	> 10 µM	7.41 µM	9.72 µM	> 3 µM	> 10 µM	0.673 µM	0.0118 µM	> 10 µM	> 10 µM	0.168 µM	0.103 µM	2.03 µM	> 1 µM	> 1 µM	2.16 µM
NCI-H82 (Small Cell Lung Carcinoma)	2.11 µM	> 2 µM	> 10 µM	11.8 µM	0.844 µM	3.57 µM	> 10 µM	> 1 µM	2.45 µM	> 5 µM	> 0.001 µM	5.8 µM	0.00546 µM	> 10 µM	> 1 µM	> 10 µM	> 0.3 µM	> 1 µM	2.69 µM	0.0227 µM	> 10 µM	1.09 µM	> 10 µM	> 3 µM	> 10 µM	0.931 µM	0.0328 µM	1.36 µM	> 10 µM	0.254 µM	0.0182 µM	0.622 µM	> 1 µM	0.227 µM	> 10 µM
TE-15 (Esophageal Squamous Cell Carcinoma)	4.29 µM	0.136 µM	> 10 µM	> 20 µM	> 1 µM	> 10 µM	8.21 µM	0.693 µM	4.55 µM	3.95 µM	> 0.001 µM	4.13 µM	0.00903 µM	0.712 µM	> 1 µM		> 0.3 µM	> 1 µM	> 10 µM	0.00974 µM	> 10 µM	> 10 µM	> 10 µM	> 3 µM	> 10 µM	0.658 µM	0.0255 µM	> 10 µM	> 10 µM	0.884 µM	0.0406 µM	1.84 µM	> 1 µM	> 1 µM	2.23 µM
